Common to all, as to test: inhibition of tumour cell growth, NCI panel, 48 h
Test [1] deals with NCI-H23 lung.
Test [2] relates to SNB-75 CNS.
The test system of test [3] is MOLT-4 leukemia.
In test [4] the test system is OVCAR-4 ovarian.
In test [5] the test system is PC-3 prostate.
Test [6] relates to SNB-19 CNS.
The subject of test [7] is 786-0 renal.
The test system of test [8] is SW-620 colon.
Test [9] relates to MDA-N.
Test [10] has as its system SR leukemia.
Test [11] concerns HS 578T breast.

Where “and” joins values, the source holds several entries; their conditions need not be identical. Equal values may be shown once.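 Assay format: 96-well plates, 48-hour exposure. GI50: concentration for 50% inhibition of growth. TGI denotes the concentration required for complete inhibition of growth.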 Some results are limits rather than exact numbers.

Regarding `O=C(/C=C1\C[C@H]2C=Nc3ccccc3C(=O)N2C1)NCCCCCNC(=O)/C=C1\C[C@H]2C=Nc3ccccc3C(=O)N2C1`, the TGI in [1] is 26.2 µM; in [2], 28.4 µM; in [3] it was more than 100 µM; in test [4], 26.4 µM; in test [5], 27.1 µM; in test [6], 31.1 µM. Besides, the TGI in [7] is 3.42 µM; in [8] it was 5.93 µM; in [9], 21.5 µM; in [10], 12.4 µM; in test [11], more than 67.6 µM.
Consider `O=C(CN=C(CN(c1ccccc1)c1ccccc1)Oc1c(Cl)cc(Cl)cc1Cl)n1cnc2ccccc21`, for which the TGI in [1], in [2], in [3], in test [4], in test [5] and in [6] was more than 100 µM throughout. Further, the TGI in test [7], in test [8], in test [9], in test [10] and in test [11] was more than 100 µM each time.
As for `C/C(=N\Nc1nc2ccccc2s1)c1cccnn1`, the TGI in [1] is 20.2 µM; in test [2], 30.7 µM; in test [3], more than 100 µM; in [4], more than 100 µM; in test [5], more than 100 µM; in test [6], more than 100 µM. Moreover, the TGI is more than 100 µM in test [7]; more than 100 µM in [8]; more than 100 µM in [9]; 52.5 µM in test [10]; 44.1 µM in test [11].
Turning to `CC(C)Cc1c(C#N)c(C#N)c(N)n1Cc1ccccc1`, the TGI in test [1], in test [2], in test [3], in test [4], in test [5] and in [6] was more than 100 µM in each case. The TGI in [7], in test [8], in [9], in test [10] and in test [11] was more than 100 µM throughout.
For `CC/C=C\C/C=C\C/C=C\CCCCCCCC(=O)OC(COC(=O)CCCCCCCCCCCCCCCCC)COC1OC(CO)C(O)C(O)C1O` (stereo unspecified), the TGI in test [1], in test [2], in [3], in test [4], in [5] and in test [6] was more than 25 µM in each case. The TGI in [7] is more than 25 µM; in [8], more than 25 µM; in test [9] it was more than 25 µM; in [10] it was more than 25 µM; in test [11], 18.5 µM.
`COCC(=O)OC1CCn2c1nc1c2C(=O)C(C)=C(NC(C)=O)C1=O` (stereo unspecified): the GI50 in [1] was 3.23 µM; in test [3], 0.772 µM; in test [4], 1.43 µM; in [5], 3.56 µM; in test [8], 3.43 µM; in test [10], 2.52 µM. Moreover, the TGI in [1] was 22.5 µM; in [2], 14.8 µM; in test [3], 6.36 µM and 4.94 µM; in test [4], 2.79 µM and 4.25 µM; in test [5], 7.68 µM; in [6], 40.5 µM. Further, the TGI in test [7] was 18.4 µM; in test [8], 19.8 µM; in test [9], 3.39 µM and 3.4 µM; in [10] it was 5.17 µM and 12.5 µM; in test [11] it was 16.8 µM.
On to `CC1OC(n2cc(F)c(=O)[nH]c2=O)C(O[Si](C)(C)C(C)(C)C)C1O[Si](C)(C)C(C)(C)C` (stereo unspecified), for which the TGI in test [1] is 23 µM; in [2], 31.3 µM; in test [3], more than 100 µM; in test [4], 16.8 µM; in test [5], 27.3 µM; in [6], 30.1 µM. The TGI in [7] is 27.7 µM; in [8], 28.6 µM; in test [9] it was 29.3 µM; in test [10], more than 100 µM; in test [11], 40.7 µM.
As for `CC(C)(C)c1ccc2c(c1)OCc1n[nH]c(n1)COc1cc(C(C)(C)C)ccc1OCCOCCO2`, the TGI worked out at 12.5 µM in [1]; 19.2 µM in [2]; 17.6 µM in [3]; 7.45 µM in test [4]; 7.59 µM in test [5]; 13.4 µM in [6]. The TGI in [7] was 16 µM; in test [8], 13.1 µM; in test [9], 12.3 µM; in test [10], 13 µM; in test [11], 9.16 µM.
Turning to `O=c1c(Cc2ccccc2)c(-c2ccccc2)[nH]n1C1=NCCN1`, the TGI in [1], in test [2], in test [3], in test [4], in test [5] and in test [6] was more than 100 µM each time. Moreover, the TGI in [7], in test [8], in test [9], in test [10] and in test [11] was more than 100 µM throughout.
For `CN(C)c1nc(=NCc2ccccn2)ss1`, the TGI is more than 10 µM in test [1]; more than 10 µM in test [2]; 4.91 µM in test [3]; more than 10 µM in test [4]; more than 10 µM in test [5]; more than 10 µM in test [6]. Further, the TGI in test [7] was more than 5.57 µM; in [8] it was more than 10 µM; in test [9], more than 10 µM; in test [10], 4.75 µM; in test [11], more than 10 µM.
`COn1cc(CO)c2ccccc21`: the TGI in [1], in test [2], in test [3], in test [4], in [5] and in test [6] was more than 100 µM each time. The TGI in test [7], in test [8], in test [9], in [10] and in test [11] was more than 100 µM each time.
On to `COc1cc2nc(-c3c(F)cccc3F)n(Cc3c(F)cccc3F)c2cc1Cc1c(F)cccc1F`, for which the TGI in test [1] was more than 100 µM; in test [2], more than 70.8 µM; in [3], more than 100 µM; in [4] it was 10.9 µM; in [5], more than 100 µM; in test [6], more than 100 µM. Moreover, the TGI in [7], in test [8], in test [9], in [10] and in [11] was more than 100 µM throughout.
With `CC1(C)[C@@H]2C[C@H]1c1cnc(-c3ccccn3)cc1[C@H]2C(O)[C@@H]1c2cc(-c3ccccn3)ncc2[C@H]2C[C@@H]1C2(C)C` (stereo partly specified), the TGI was 2.79 µM in test [1]; 87.3 µM in test [2]; 0.505 µM in test [3]; more than 9.95 µM in test [4]; 11 µM in test [5]; 15.5 µM in test [6]. Moreover, the TGI worked out at 4.69 µM in test [7]; 47.1 µM in test [8]; 11 µM in test [9]; 0.354 µM in test [10]; 37.3 µM in [11].
With `Cc1cccc(NC(Nc2cccc(C)c2)=C(C(Cl)=C(Cl)Cl)[N+](=O)[O-])c1`, the TGI in test [1] is 23.6 µM; in [2], more than 68.6 µM; in [3], more than 20 µM; in [4], more than 82 µM; in test [5], more than 92.9 µM; in [6] it was more than 63 µM. The TGI was 44.3 µM in [7]; 34.2 µM in test [8]; more than 35.1 µM in [9]; 42.8 µM in [10]; 11.2 µM in test [11].
On to `O=CN(O)CC(=O)O`, for which the TGI in [1], in test [2], in [3], in test [4], in test [5] and in [6] was more than 100 µM throughout. The TGI in [7], in test [8], in test [9], in [10] and in test [11] was more than 100 µM throughout.
For the molecule `COC(=O)C(CCSC)NC(=O)CSc1nnc(COc2ccc(Cl)cc2)n1-c1ccccc1` (stereo unspecified), the TGI was 34.9 µM in test [1]; 33.7 µM in test [2]; 43 µM in [3]; 31.8 µM in test [4]; 38.4 µM in test [5]; 47.1 µM in [6]. Further, the TGI in test [7] was found to be 30 µM; in [8], 49.7 µM; in [9] it was 34.1 µM; in [10], 42.4 µM; in test [11] it was 55.6 µM.
Regarding `c1ccc(-c2ccc(N=NN3CCCC3)cc2)cc1`, the TGI in [1], in test [2], in test [3], in [4], in test [5] and in test [6] was more than 100 µM in each case. For the same molecule, the TGI in [7], in [8], in test [9], in test [10] and in test [11] was more than 100 µM each time.
With `N/C(CSCCSC/C(N)=N/O)=N\O`, the TGI in [1], in [2], in test [3], in test [4], in test [5] and in test [6] was more than 100 µM each time. Besides, the TGI in test [7], in test [8], in test [9], in [10] and in [11] was more than 100 µM in each case.
With `CCNC(=S)N/N=C/c1ccccn1`, the TGI in test [1] is 84.8 µM; in test [2] it was more than 100 µM; in [3] it was more than 100 µM; in test [4], 4.98 µM; in test [5], more than 100 µM; in test [6], more than 100 µM. The TGI in test [7], in [8], in [9], in [10] and in [11] was more than 100 µM in each case.
For the molecule `CC12CCC(C/C1=N\NC(N)=O)C2(C)C` (stereo unspecified), the TGI in test [1], in [2], in [3], in [4], in test [5] and in [6] was more than 100 µM throughout. For the same molecule, the TGI in test [7], in [8], in [9], in test [10] and in test [11] was more than 100 µM each time.
As to `CC[P+](C#Cc1ccccc1)(c1ccccc1)c1ccccc1`, the TGI amounted to 7.51 µM in test [1]; 5.31 µM in [2]; 3.93 µM in [3]; 12.3 µM in test [4]; 6.53 µM in test [5]; 17.5 µM in test [6]. In addition, the TGI is 4.36 µM in [7]; 10.8 µM in test [8]; 3.44 µM in [9]; 5.73 µM in test [10]; 7.77 µM in [11].
On to `COC(=O)C1=C(C(=O)OC)C2(C)CCC(=O)C1O2` (stereo unspecified), for which the TGI in test [1], in test [2], in [3], in [4], in test [5] and in test [6] was more than 10 µM in each case. The TGI in test [7], in test [8], in test [9], in test [10] and in [11] was more than 10 µM in each case.
Turning to `COP(=O)(CC(=O)C1OC(OCc2ccccc2)C(OCc2ccccc2)C(OCc2ccccc2)C1OCc1ccccc1)OC` (stereo unspecified), the TGI in test [1] was more than 100 µM; in test [2], 92.3 µM; in [3], more than 100 µM; in test [4], 8.89 µM; in test [5] it was more than 100 µM; in [6] it was more than 100 µM. Moreover, the TGI was more than 100 µM in test [7]; more than 100 µM in test [8]; 20.3 µM in [9]; 21.4 µM in test [10]; more than 100 µM in test [11].
Take `COC(=O)[C@H]1C=C[C@H](OC2OC(COC(C)=O)C(OC(C)=O)C(OC(C)=O)C2OC(C)=O)n2c(=O)n(-c3ccccc3)c(=O)n21` (stereo partly specified): the TGI came out at 15.6 µM in test [1]; 24.9 µM in [2]; 6.16 µM in test [3]; 32.9 µM in test [4]; 22.6 µM in test [5]; 31.3 µM in test [6]. Besides, the TGI was determined as 14.7 µM in test [7]; 5.68 µM in [8]; 18.5 µM in [9]; 8.33 µM in test [10]; 9.59 µM in test [11]. In addition, in test [4], the GI50 is 4.14 µM.

For the origin of these results see PubChem BioAssay (NCI).
